A word on the MIC: it is the smallest concentration in the dilution series that meets the test's criterion for growth inhibition. In general, IC50 refers to the concentration at which inhibition is half-maximal.

This note sets out measurements from US11840547B1, “Nano-sized 4-Bromo-2-[(9H-purin-6-ylimino)-methyl]-phenol imine Pd(II) complex for superior pharmaceutical applications” (KING FAISAL UNIVERSITY, priority 2023, dated 2023).

The subject of experiment [1] is E. coli bacteria. Briefly: Antimicrobial activity against E. coli (inhibition zone, MIC). In kind it is cell-based. The following applies: in vitro.
In experiment [2] the test system is breast cancer cell line. Description: Antioxidant activity. The class given is cell-based. To be noted: printed as against a breast cancer cell line.
For experiment [3], the system named is Aspergillus flavus fungi. Description: Antifungal activity against Aspergillus flavus (inhibition zone, MIC). In kind it is cell-based. The following applies: in vitro.
Experiment [4] relates to breast cancer cell line. Briefly: In vitro anti-cancer activity against breast cancer cell line. In kind it is cell-based, human.
[5] abbreviates: listed as prepared nano complex.

In brackets after ≈: the same amount, converted by molar mass. Where two headings read alike, the source gives them in different places.

For the compound “4-Bromo-2-[(9H-purin-6-ylimino)-methyl]-phenol imine Pd(II) complex [prepared complex]”, the minimal inhibitory concentration (MIC) in experiment [1] (setting [5]) was 1.00 µg/mL; in experiment [1] (listed as present complex) it was “about 1.0 μg/ml”; in experiment [3], 1.50 µg/mL; in experiment [3] (listed as present complex), “about 1.50 μg/ml”. The inhibition zone was 40 mm in experiment [1] (setting [5]), “about 40 mm” in experiment [1] (listed as present complex), 30 mm in experiment [3] and “about 30 mm” in experiment [3] (listed as present complex). Besides, in experiment [2], the “IC50 (antioxidant activity)” value is 7.5 µg/mL. In addition, in experiment [4], the “IC50 (anticancer activity)” value stood at 2.2 µg/mL.
With `CC[C@]1(O)C[C@@H]2CN(CCc3c([nH]c4ccccc34)[C@@](C(=O)OC)(c3cc4c(cc3OC)N(C)[C@H]3[C@@](O)(C(=O)OC)[C@H](OC(C)=O)[C@]5(CC)C=CCN6CC[C@]43[C@@H]65)C2)C1` [vinblastine, reference compound], in experiment [4] (Homo sapiens, read-out: IC50 (anticancer activity)), the concentration for half-maximal inhibition (IC50) amounted to 4.7 µg/mL (≈ 5.8 µM).
Take `CC1COc2c(N3CCN(C)CC3)c(F)cc3c(=O)c(C(=O)O)cn1c23` (stereo not shown) [Ofloxacin, reference compound]: the MIC in experiment [1] (Escherichia coli, read-out: MIC) was determined as 2.5 µg/mL (≈ 6.92 µM). The compound also returned an inhibition zone in experiment [1] of 35 mm.
With `O=C1O[C@H]([C@@H](O)CO)C(O)=C1O` [1-ascorbic acid, reference compound], the “IC50 (antioxidant activity)” value in experiment [2] worked out at 45.7 µg/mL (≈ 259 µM).
In experiment [3], `OC(Cn1cncn1)(Cn1cncn1)c1ccc(F)cc1F` [Fluconazol, reference compound] returned an inhibition zone of 24 mm. Also, in experiment [3] (read-out: MIC), the MIC was found to be 2 µg/mL (≈ 6.53 µM).
